Test results reported in PMC3664642, “A Peptide against Soluble Guanylyl Cyclase α1: A New Approach to Treating Prostate Cancer” (PLoS ONE, 2013).
Entries after “also recorded” stand apart in the source; their conditions may differ. Where no end group is shown, it is not given here.

How the values were obtained:
[1] = tested on: ROS generation in PC-3 cells; assay: ROS generation, PC-3 cells; type: cell-based; conditions: 0–30 min; Fig. S5A
Procedure: Intracellular ROS levels were evaluated using the fluorescent probe 5-(and-6)-chloromethyl-2′,7′-dichlorodihydrofluorescein diacetate (CM-H2DCFDA) (Invitrogen). After treatments with Peptide A-8R, C81 cells were loaded with 20 µM CM-H2DCFDA and incubated at 37°C for 30 min in the dark. Cells were then washed with PBS and fluorescence was measured at the excitation and emission wavelengths of 490 and 535 nm, respectively, using a multi-well fluorescence plate reader. For NAC (N-acetyl cysteine) (Sigma) rescue experiment, cells were pretreated with 1 or 5 mM NAC for 2 hours before adding Peptide A-8R.
Supplementary file pone.0064189.s005.tif: Figure S5 ROS generation is not induced by Peptide A-8R in PC-3 cells and Peptide C-8R in LNCaP cells. (A) PC-3 cells were treated with Vehicle or different concentrations of Peptide A-8R or Peptide C-8R, as shown, or (B) LNCaP cells were treated with Vehicle or different concentrations of Peptide A-8R or Peptide C-8R, or H2O2 and monitored for ROS generation after 0–30 (A) or 30 (B) min. (C) LNCaP cells were treated with Vehicle, Peptide C-8R (10 µM), Peptide A-8R (10 µM), or Etoposide (100 µM) for 0–8 hrs and subjected to a Caspase assay to measure apoptosis. Bar graphs represent averages of three independent experiments plus standard deviations. (C) All activities are relative to the first condition, and this activity was set to either 1. […]

[2] = tested on: LNCaP cells; assay: AKT over-expression (adenovirus) rescue of Peptide A-8R-treated cells; type: cell-based; conditions: 10- 50 µM Peptide A-8R; 10% serum; 0–6 days; Fig. S4D
[3] = target: T1, sGCα1 (Homo sapiens, UniProt Q02108); assay: Binding affinity by immunoprecipitation with FITC-tagged peptide; design: endogenous sGCα1 was immunoprecipitated; endogenous in cells; host or cells: C81 cells (methods); conditions: C81 whole-cell extract (legend: LNCaP extract), room temperature, 2 hours, IP with anti-sGCα1, fluorescence 485/521 nm, nonlinear regression
T1 sequence (Q02108 1-690): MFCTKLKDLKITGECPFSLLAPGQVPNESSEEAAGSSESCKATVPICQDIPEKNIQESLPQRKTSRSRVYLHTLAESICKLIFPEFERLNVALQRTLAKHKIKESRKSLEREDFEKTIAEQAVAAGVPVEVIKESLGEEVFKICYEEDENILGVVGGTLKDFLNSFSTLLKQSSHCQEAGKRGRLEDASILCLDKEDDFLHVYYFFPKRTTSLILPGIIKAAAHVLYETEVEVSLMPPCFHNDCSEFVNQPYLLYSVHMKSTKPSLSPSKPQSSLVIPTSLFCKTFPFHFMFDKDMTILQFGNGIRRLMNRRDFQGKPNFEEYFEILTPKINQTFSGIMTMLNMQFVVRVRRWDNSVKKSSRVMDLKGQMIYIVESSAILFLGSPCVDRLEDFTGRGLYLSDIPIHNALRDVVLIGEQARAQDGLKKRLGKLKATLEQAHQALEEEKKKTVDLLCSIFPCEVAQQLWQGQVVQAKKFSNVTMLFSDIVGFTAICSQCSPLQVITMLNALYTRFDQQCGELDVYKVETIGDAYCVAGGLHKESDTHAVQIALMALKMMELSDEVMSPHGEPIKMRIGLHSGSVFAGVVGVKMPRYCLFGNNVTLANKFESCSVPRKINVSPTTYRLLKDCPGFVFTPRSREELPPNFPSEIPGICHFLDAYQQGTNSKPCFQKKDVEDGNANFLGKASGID
Procedure: For binding affinity experiments, whole-cell extract from C81 cells was incubated with different concentrations of Peptide A-8R tagged with FITC at room temperature for 2 hours. IPs were performed using antibodies against sGCα1 or rabbit IgG as control. Peptide A-8R-FITC pulldown was measured by fluorescence signal at excitation and emission wavelengths of 485 and 521 nm, respectively, using a multi-well fluorescence plate reader.
Figure 2 Peptide A-8R interacts with sGCα1 in prostate cancer cells. (A) LNCaP cells were treated with 25 µM Biotin-labeled Peptide A-8R for 2 hrs and subjected to immunocytochemistry using anti-sGCα1 or anti-Biotin antibody to measure subcellular co-localization of endogenous sGCα1 and Peptide A-8R. DAPI was used to stain nuclei. (B) LNCaP cytosolic extracts were incubated with Peptide A-8R-Biotin and subjected to purification using streptavidin-agarose. This pull-down experiment was repeated with competing excess amount of unlabeled Peptide C-8R or Peptide A-8R. In both cases Western blotting was used to measure the co-purification of sGCα1. (C) LNCaP cell extract was incubated with different concentrations of Peptide A-8R-FITC and endogenous sGCα1 was immunoprecipitated. Co-purified Peptide A-8R-FITC was quantified by measuring fluorescence signal emission. […] Cell number was measured after 0–48 hrs of incubation. […]

[4] = tested on: DNA damage in C81 cells; assay: Comet assay (DNA damage); type: cell-based; conditions: C81, 1 hr, Fig. 4C
Procedure: C81 cells were treated with Peptide A-8R for 1 hour, following a 2-hour pretreatment with 5 mM NAC or Vehicle, and trypsinized, and mixed with Comet LM-Agarose (CometAssay, […]) and transferred to slides. Electrophoresis and Sybr-Green staining was carried out according to manufacturer’s protocol.
Figure 4 Peptide A-8R kills prostate cancer cells by mediating ROS generation. (A) C81 cells were treated with Vehicle or different µMolar concentrations of Peptide A-8R and without or with 0–5 mM NAC and monitored for ROS generation after 0–30 min as measured by fluorescence intensity (FI). Bar graphs represent averages of three independent experiments plus standard deviations. Note that asterisks on bar graphs found with NAC are compared to equivalent data without NAC. (B) C81 cells were treated with Vehicle or different concentrations of Peptide A-8R, as shown, and 0–5 mM NAC, as shown, and monitored for cell number after 0–6 days of incubation as measured by MTT assay. Data points represent averages of three independent experiments plus standard deviations. Asterisks indicate statistical significance (P<0.04). (C) C81 cells were treated with Vehicle or different concentrations of Peptide A-8R, as shown, and with or without 5 mM NAC, as shown, and monitored DNA damage after 1 hr incubation as measured by Comet assay.

Substance: Ac-TFCKAFPFHIIRRRRRRRR [Peptide A-8R]
- ROS generation, PC-3 cells [1]: do not respond; also recorded: not induced
- rescue by adenovirus-expressed AKT [2]: unable to rescue
- Kd [3]: 11.6 µM
- DNA damage (Comet) ([4]; 10 µM): induced weakly
- DNA damage (Comet) ([4]; 25 µM): much more strongly
- DNA damage (Comet) ([4]; 50 µM): does not elicit a Comet signal
